Holding throughout (assay type): in vivo, human
A short description of series [1]: Pharmacokinetic profile in the Phase 1/2 study. On the procedure:
(§1) The study is designed to evaluate the safety and tolerability of Compound 1 in patients who are maintained on stable PD therapy. Another objective is to evaluate the pharmacokinetic profile of Compound 1 and explore its potential utility to control motor fluctuations and to evaluate treatment of non-motor symptoms (e.g., daytime sleepiness, dysautonomia) associated with PD. Biomarkers of disease progression (i.e., inflammation) are assessed.
(§2) 40 patients with idiopathic PD are recruited for the study. Patients with mild to moderate PD (Hoehn and Yahr staging score of 1-3 assessed in the “On” state) maintained on stable PD therapy are randomly assigned to placebo or 5 cohorts of Compound 1 at 1 mg, 3 mg, 10 mg, 30 mg, and 90 mg administered orally once daily for 7 days. All patients participating in the study are maintained on their stable PD therapy (e.g., dopamine replacement therapies), some of which are taking more than one category of PD therapy. Of the 40 patients, there are 28 receiving carbidopa/L-dopa, 14 receiving a dopamine agonist, 5 receiving amantadine, and 3 receiving MAO inhibitors.
Plasma steady state is achieved in the first 48 hours and supports once-a-day dosing for future efficacy trials.

The test system of series [2] is patients with mild to moderate Parkinson's Disease (PD). Description: CISI-PD (Clinical Impression of Severity Index for PD) in the Phase 1/2 study. To be noted: versus placebo; FIG. 4. On the procedure: (§3) A Phase 1/2 randomized, double-blind, placebo-controlled, multiple rising dose clinical study was carried out to evaluate Compound 1 (below) in patients with mild to moderate Parkinson's Disease (PD).
as §2

Series [3] has the same test system. Description: Hauser Patient Motor Diary in the Phase 1/2 study. To be noted: rated by subjects, oral once daily for 7 days. On the procedure:
as §3, §2
(§4) The efficacy of Compound 1 in improving motor and non-motor symptoms of PD is measured using multiple scales, providing input from both subjects and site raters. Motor performance was improved and motor complications were reduced in the “On” state by Compound 1 relative to placebo treatment as assessed by the Movement Disorder Society Unified Parkinson's Disease Rating Scale (MDS-UPDRS) (FIG. 1). […] (FIGS. 3-4).

Series [4] has the same test system. Description: Phase 1/2 randomized, double-blind, placebo-controlled, multiple rising dose clinical study: safety and tolerability. How it is done:
as §3, §1, §2

The test system is the same in series [5]. Description: Unified Parkinson's Disease Rating Scale (MDS-UPDRS) in the Phase 1/2 study. On the procedure: as §3, §2, §4
The test system is the same in series [6]. Description: Unified Dyskinesia Rating Scale (UDysRS) in the Phase 1/2 study. Conditions: FIG. 2. How it is done: as §3, §2, §4
The mark [7] stands for this setting: "On" state, relative to placebo, FIG. 1.

This note sets out measurements from US12194042B2, “Uses” (INTRA-CELLULAR THERAPIES, INC., priority 2018, dated 2025).

SMILES strings stand for the structures. “Also recorded” adds a separate entry of the source.

As for `CN1C(=O)c2c(nn(Cc3ccc(-c4cccc(F)n4)cc3)c2Nc2ccccc2)N2C1=N[C@@H]1CCC[C@@H]12` [Compound 1, (6aR,9aS)-5,6a,7,8,9,9a-hexahydro-5-methyl-3-(phenylamino)-2-((4-(6-fluoropyridin-2-yl)phenyl)methyl)-cyclopent[4,5]imidazo[1,2-a]pyrazolo[4,3-e]pyrimidin-4(2H)-one], the “time to plasma steady state” value in series [1] (once daily oral dosing) is not above 48 h. The “pharmacokinetics (dose linearity)” value in series [1] (parent drug and metabolites, across 1 mg to 90 mg) was “linear pharmacokinetics”. In addition, the “CISI-PD Motor Complications Score” value in series [2] is “reductions; also recorded: decreased”. The “total On time (Hauser Patient Motor Diary)” value in series [3] was “increased”. In series [3] (versus placebo), the “"On" time without dyskinesias (Hauser Patient Motor Diary)” value is recorded as “increases on-time without causing dyskinesia; also recorded: increased”. The serious adverse events entry in series [4] (1 mg to 90 mg orally once daily for 7 days) is “No serious adverse events”. For the same compound, the “induction or worsening of motor complications” value in series [4] (PD patients receiving concomitant dopamine replacement therapies) is “did not induce or worsen motor complications”. Besides, in series [4] (compared to placebo), the “effects on vital signs, cardiovascular or laboratory parameters” value is reported as “no clinically significant effects”. The tolerability entry in series [4] (once-daily oral for 7 days, doses from 1 mg to 90 mg) was “generally well tolerated”. Besides, the safety profile entry in series [4] (once-daily oral for 7 days, no titration, 1 mg to 90 mg) is listed as “favorable safety profile”. Besides, the “side effects of dopamine replacement therapies” value in series [4] (patients on dopamine replacement therapies) is given as “reduces the side effects”. Moreover, the “UPDRS scores at end of study (EOS)” value in series [5] (30 days after cessation of treatment, FIG. 1) is “Scores increase”. Also, in series [5] (setting [7]), the “motor complications (MDS-UPDRS)” value is “reduced” and the “motor performance (MDS-UPDRS)” value was “improved”. Besides, the UPDRS scores entry in series [5] (by day 7 of treatment, PD patients on stable PD therapy, FIG. 1) was “decrease scores”. In addition, in series [5] (oral once daily for 7 days), the “MDS-UPDRS total scale scores” value is on record as “reduces scores”. In addition, in series [5] (oral once daily for 7 days, on stable PD therapy), the “motor symptoms (UPDRS Part III; clinician ratings of the motor manifestations of PD)” value is given as “reductions; also recorded: reduces scores”. In addition, in series [5] (oral once daily for 7 days, Part IV data not shown), the “motor complications including dyskinesias (UPDRS Part IV subscale)” value was “reductions; also recorded: reduces scores”. Also, in series [6] (oral once daily for 7 days), the “dyskinesia symptoms / motor complications measured by UDysRS” value was “reductions; also recorded: reduces dyskinesia symptoms”. The “Objective UDysRS Total Score” value in series [6] (subjects with dyskinesia at baseline, after treatment) is listed as “Improves”.
